Measured values from US20230302131A1, “MPC INHIBITION FOR PRODUCING T-CELLS WITH A MEMORY PHENOTYPE” (UNIVERSITÉ DE LAUSANNE, priority 2020, published 2023).

Experiments:
OT1 CD8 T cells = experiment: In vitro activation of OT1 splenocytes with N4 peptide and IL-2, CD62L by flow cytometry; type: cell-based, mouse
Protocol: To evaluate the effects of MPC inhibition on T cell differentiation, OT1 splenocytes were cultured in the presence of 1 μg/ml ovalbumin-derived N4 (SIINFEKL) peptide, 100 IU/ml recombinant human IL-2 (rhIL-2) and the MPC inhibitor (MPCi) UK5099 at 75 μM or control DMSO for 3 days. The inhibitor or DMSO was then washed away and the cells were cultured for 4 more days in the presence of 100 IU/ml IL-2 and 10 ng/ml rhIL-7 (FIG. 1A). […] Thus, the increase in the memory markers upon MPCi in vitro treatment occurs at the transcriptional level.
OT1 splenocytes were cultured for 3 days at a concentration of 10^6 cells per mL in RPMI medium (Gibco 61870-01) supplemented with 10% FBS, (Gibco 10270-106), 1% Penicillin/Streptomycin (Gibco 15070-063), 50 μM β-mercaptoethanol, 1% HEPES (Gibco 15630-080), 1× Non-essential amino acids (Gibco 11140-035), 1% L-glutamine (Gibco 25030-081), 1 mM Sodium Pyruvate (Gibco 11360-039). Cells were additionally supplemented with hIL-2 100 U/ml (Glaxo-IMB), ovalbumin N4 peptide (SIINFEKL) 1 μg/ml and either with 75 μM UK5099 (Sigma Aldrich) or with their solvent DMSO as a control. At day 3, splenocytes were collected, washed and split, and cells were cultured for 4 additional days with 100 U/ml hIL-2 and hIL-7 (Peprotech 200-07) supplemented either with 75 μM UK5099 (Sigma Aldrich) or DMSO. […]

[1] = test system: transferred OT1 cells in LM-OVA infected mice; experiment: In vivo Listeria-Ova infection model after adoptive transfer of pre-treated OT1 cells; parameters: species or system mouse
From the text: In order to evaluate whether this memory phenotype is maintained in vivo, 10^5 MPCi- or DMSO-treated OT1 cells were intravenously injected in healthy mice. Twenty-four hours after cell transfer, the mice were infected with a sub-lethal dose of ovalbumine-expressing Listeria monocytogenes (LM-OVA, 2000 CFU i.v.) (FIG. 1H). […] Consequently, 28 days after LM-OVA infection, during the memory phase of the immune reaction, the proportion of central memory T cells (CD44+CD62L+) among the transferred cells in the blood was larger in mice that received cells pre-treated with MPCi (FIG. 1K). Importantly, the effects of the MPC inhibitor were target specific, since an increase in memory T cell differentiation could also be observed when MPC1 KO T cells were transferred in this Listeria model (FIG. 1L-N). In summary, MPCi-treated cells display a consistent memory phenotype upon in vivo transfer in an infection model.
Activated CD45.1+OT-1 splenocytes were culture in vitro for 7 days as described above, collected and purified on a Ficoll gradient, allowing to separate dead and live splenocytes. Live splenocytes were counted with Trypan blue stain 0.4%. 100′000 live splenocytes were transferred into CD45.2+ host mice by tail vein injection.
Recombinant bacteria Listeria monocytogenes deficient for actA and expressing the ovalbumin (Ova) peptide SIINFEKL were expanded and tittered. Optical density measured with a spectrophotometer was used to determine bacterial concentration and 2000 CFU were administered in each mouse by tail vein injection, […] after adoptive cell transfer. Blood samples were collected and processed for surface markers and cytokine production analyses.
Antibody panels for blood analyses contained: CD8-PE-texas-Red, CD45.1-Pacific blue, CD45.2-FITC, CD127-PE, KLRG1-PE-Cy7, CD62L-APC, CD44-APC-Cy7, and CD27-PerCP-Cy5.5.

OT1 splenocytes = experiment: Metabolomics, acetyl-CoA and 13C tracing by mass spectrometry; type: cell-based, mouse
From the text: (§1) Mechanistically, it was hypothesized by the inventors that epigenetic processes might underlie the observed long-term memory phenotype and anti-tumor activity upon metabolic intervention with MPCi. […] Since acetyl-CoA is the acetyl donor for the acetylation of proteins, amongst which also histones, histone post-translational modifications were examined that are known to make chromatin accessible to transcription factors, a characteristic of memory T cells. […] These are marks known to open chromatin and make it accessible for transcription factor docking. […] Amongst those were Sell, Tcf7 and Ccr7, thereby correlating accessible chromatin with increased mRNA copies (FIG. 3E and see above).
OT1 splenocytes were activated and cultured as described above. After 66 hours, the cells were collected and the medium was replaced with glucose- and glutamine-free RPMI, supplemented with 10% dialyzed FBS, 1% P/S, 10 mM HEPES, 50 μM β-mercaptoethanol and either 11 mM normal glucose or 11 mM U-^13C6-glucose (Cambridge Isotopes) with respectively 4 mM ^13C5-glutamine (Cambridge Isotopes or 4 mM normal L-glutamine. After 6 hours labelling at 37° C., cells were collected and lysed in Methanol. Next Chloroform was added, and after centrifugation, the fraction containing the polar metabolites was collected and dried on a SpeedVac. Samples were then resuspended and loaded on a mass spectrometer. The spectra of AcetylCoA were analyzed with the M+0 representing the unlabeled fraction, and the M+2 representing the Acetyl group derived from the ^13C-labelled substrate (glucose or glutamine).

[2] = test system: histone 3 (H3K4-3Me, H3K27-Ac) in CD8 T cells; experiment: Western blot of histone 3 modifications; type: cell-based, mouse
From the text: as §1
Cells were lysed in RIPA lysis buffer (50 mM TrisHCl pH8, 150 mM NaCl, 1% Triton X 100, 0.5% Sodium deoxycholate, 0.1% SDS) and Halt protease/phosphatase cocktail inhibitors (Roche) and denatured by heat. Proteins were quantified by BCA protein assay kit (Thermo Scientific). Proteins were separated on 12.5% polyacrylamide gradient gels and transferred onto nitrocellulose membranes 0.2 μm (Biorad). Non-specific binding sites were blocked in milk 5% and membranes were incubated with primary antibodies (Cell Signaling). […]

## N#CC(=Cc1cn(-c2ccccc2)c2ccccc12)C(=O)O [UK5099, 2-cyano-3-(1-phenyl-1H-indol-3-yl)-2-propenoic acid]
OT1 CD8 T cells; 75 μM d0-d3, then washed away, flow cytometry day 7, compared to DMSO
  surface expression of the central memory marker CD62L: strong increase
OT1 CD8 T cells; MPCi treatment continued between d3 and d7
  surface CD62L expression at day 7, continued treatment: even more pronounced than a d0-d3 treatment only
[1]; 28 days after LM-OVA infection, vs DMSO
  proportion of central memory T cells (CD44+CD62L+) among the transferred cells in the blood: larger
[1]; day 7 post-LM-OVA, blood, pre-treated OT1 cells vs DMSO
  frequency of memory precursor cells (CD127+, KLRG1low): significantly increased
[1]; weekly bleeding, peak of immune response and contraction phase, cells pre-treated in vitro
  frequency of the transferred cells in blood: did not reveal significant differences
OT1 splenocytes; 6 hours labelling
  13C-glutamine incorporation into acetyl-CoA: incorporated dramatically more
  13C-labeled glucose incorporation into acetyl-CoA: incorporating less
OT1 splenocytes; mass spectrometry, vs DMSO
  total acetyl-CoA levels: strong increase
[2]
  acetylation of lysine 27 on histone 3 (H3K27-Ac): increase
  trimethylation of lysine 4 on histone 3 (H3K4-3Me): increase
